Key:
[1] = test system: Pyrenophora teres; experiment: In vivo preventive test on Pyrenophora teres (net blotch on barley), Examples D, Q2 and R4; details: Pyrenophora teres, 336 h, 500 ppm of active ingredient, preventive spray, evaluated 14 days after inoculation, read-out: efficacy
[2] = test system: Botrytis cinerea; experiment: In vivo preventive test on Botrytis cinerea (grey mould) on gherkin, Examples B, Q1 and R2; details: Botrytis cinerea, 500 ppm of active ingredient, preventive spray, evaluated 4 to 5 days after inoculation, read-out: efficacy
[3] = test system: Pyricularia oryzae; experiment: whole plant or invertebrate; format: in vivo; details: 192 h, read-out: efficacy
[4] = test system: Sphaerotheca fuliginea; experiment: In vivo preventive test on Sphaerotheca fuliginea (powdery mildew on cucurbits), Examples F and R6; details: Podosphaera fuliginea, 360 h; 500 ppm of active ingredient; gherkin, preventive spray, evaluated 15 days after inoculation; read-out: efficacy
[5] = test system: Phakopsora pachyrhizi; experiment: In vivo preventive Phakopsora test (soybeans), Example I; details: 168 h, 100 ppm of active ingredient, preventive spray, evaluated 7 days after inoculation, read-out: efficacy
[6] = test system: Puccinia recondita; experiment: In vivo preventive test on Puccinia recondita (brown rust on wheat), Examples C and R3; details: Puccinia recondita, 264 h; 500 ppm of active ingredient; wheat, preventive spray, evaluated 11 days after inoculation; read-out: efficacy
[7] = test system: Uromyces appendiculatus; experiment: In vivo preventive test on Uromyces appendiculatus (bean rust), Examples G and R7; details: 264 h, 500 ppm of active ingredient, bean, preventive spray, evaluated 11 days after inoculation, read-out: efficacy
[8] = test system: Leptosphaeria nodorum; experiment: In vivo preventive Leptosphaeria nodorum test (wheat), Example N; details: Parastagonospora nodorum, 192 h, 500 ppm of active ingredient, preventive spray, evaluated 8 days after inoculation, read-out: efficacy
Source text: After the spray coating has been dried, the plants are sprayed with a spore suspension of Leptosphaeria nodorum.

[9] = test system: Fusarium nivale (var. majus); experiment: In vivo preventive Fusarium nivale (var. majus) test (wheat), Example O; details: Microdochium nivale, 120 h, 500 ppm of active ingredient, preventive spray, evaluated 5 days after inoculation, read-out: efficacy
Source text: After the spray coating has been dried, the plants are slightly injured by using a sandblast and afterwards they are sprayed with a conidia suspension of Fusarium nivale (var. majus).

[10] = Measurement of LogP values by HPLC on reversed phase columns (EEC directive 79/831 Annex V.A8); format: physicochemical; details: method [a]: LC-UV, acidic range, 0.1% formic acid in water and acetonitrile as eluent; Table 1
Description: Measurement of Log P values was performed as outlined above.

[11] = test system: Alternaria solani; experiment: In vivo preventive Alternaria test (tomatoes), Example H; details: 72 h, 100 ppm of active ingredient, preventive spray, evaluated 3 days after inoculation, read-out: efficacy
[12] = test system: Venturia inaequalis; experiment: In vivo preventive Venturia test (apples), Example J; details: 240 h, read-out: efficacy
Description: After the spray coating has dried on, the plants are inoculated with an aqueous conidia suspension of the causal agent of apple scab (Venturia inaequalis) and then remain for 1 day in an incubation cabinet at approximately 20° C. and a relative atmospheric humidity of 100%.
The plants are then placed in a greenhouse at approximately 21° C. and a relative atmospheric humidity of approximately 90%.
The test is evaluated 10 days after the inoculation.

[13] = test system: Fusarium culmorum; experiment: In vivo preventive Fusarium culmorum test (wheat), Example L; details: 120 h, 500 ppm of active ingredient, preventive spray, evaluated 5 days after inoculation, read-out: efficacy
Description: After the spray coating has been dried, the plants are slightly injured by using a sandblast and afterwards they are sprayed with a conidia suspension of Fusarium culmorum.
The test is evaluated 5 days after the inoculation.

[14] = test system: Blumeria graminis fsp. hordei; experiment: In vivo preventive Blumeria test (barley), Example K; details: 168 h, 500 ppm of active ingredient, preventive spray, evaluated 7 days after inoculation, read-out: efficacy
Source text: After the spray coating has been dried, the plants are dusted with spores of Blumeria graminis fsp. hordei.

[15] = test system: Septoria tritici; experiment: In vivo preventive test on Septoria tritici (leaf spot on wheat), Examples E, Q3 and R5; details: Zymoseptoria tritici, 576 h, 500 ppm of active ingredient; wheat, preventive spray, evaluated 24 days after inoculation; read-out: efficacy
[16] = test system: Fusarium graminearum; experiment: whole plant or invertebrate; format: in vivo; details: in Hordeum vulgare, 120 h, read-out: efficacy
[17] = test system: Alternaria brassicae; experiment: In vivo preventive test on Alternaria brassicae (leaf spot on radish), Examples A and R1; details: Alternaria brassicae, 144 h, 500 ppm of active ingredient, preventive spray, evaluated 6 days after inoculation, read-out: efficacy

| Structure (SMILES) | pest or weed control at 500 ppm [1] [%] | pest or weed control at 500 ppm [2] [%] | pest or weed control at 500 ppm [3] [%] | pest or weed control at 500 ppm [4] [%] | pest or weed control at 100 ppm [5] [%] | pest or weed control at 500 ppm [6] [%] | pest or weed control at 500 ppm [7] [%] | pest or weed control at 500 ppm [8] [%] | pest or weed control at 500 ppm [9] [%] | chromatographic logP [10] | pest or weed control at 100 ppm [11] [%] | pest or weed control at 100 ppm [12] [%] | pest or weed control at 500 ppm [13] [%] | pest or weed control at 500 ppm [14] [%] | pest or weed control at 500 ppm [15] [%] | pest or weed control at 500 ppm [16] [%] | pest or weed control at 500 ppm [17] [%] |
| --- | --- | --- | --- | --- | --- | --- | --- | --- | --- | --- | --- | --- | --- | --- | --- | --- | --- |
| C#Cc1cncn1CC(O)(Cc1ccccc1Cl)C1(Cl)CC1 (stereo not drawn) [Example I-38] | 80 to 89 | 90 to 100 | 90 to 100 | 90 to 100 | 90 to 100 | 80 to 89 | 90 to 100 | 80 to 89 | 90 to 100 | 2.09 | 90 to 100 | 90 to 100 | 80 to 89 | 90 to 100 | 90 to 100 | – | – |
| N#Cc1cncn1CC(O)(Cc1ccc(F)cc1F)C1(F)CC1 (stereo not drawn) [Example I-97] | 80 to 89 | – | 70 to 79 | 90 to 100 | 90 to 100 | 90 to 100 | 90 to 100 | – | 90 to 100 | 2.39 | 80 to 89 | 80 to 89 | 90 to 100 | 90 to 100 | 90 to 100 | 90 to 100 | – |
| N#Cc1cncn1CC(O)(Cc1ccccc1F)C1(F)CC1 (stereo not drawn) [Example I-99] | 90 to 100 | 90 to 100 | 80 to 89 | 90 to 100 | 90 to 100 | 90 to 100 | 90 to 100 | 90 to 100 | 90 to 100 | 2.01 | 90 to 100 | 80 to 89 | – | 90 to 100 | 90 to 100 | 90 to 100 | 80 to 89 |
| N#Cc1cncn1CC(O)(Cc1cccc(F)c1F)C1(Cl)CC1 (stereo not drawn) [Example I-146] | 90 to 100 | 90 to 100 | 70 to 79 | 90 to 100 | 90 to 100 | 90 to 100 | 90 to 100 | 90 to 100 | 90 to 100 | 2.75 | 90 to 100 | 90 to 100 | – | 90 to 100 | 90 to 100 | 90 to 100 | – |
| OC(Cc1cccc(F)c1F)(Cn1cncc1Cl)C1(Cl)CC1 (stereo not drawn) [Example I-147] | 90 to 100 | 90 to 100 | 80 to 89 | 90 to 100 | 90 to 100 | 90 to 100 | 90 to 100 | 90 to 100 | 90 to 100 | 2.17 | 90 to 100 | 90 to 100 | – | 90 to 100 | 90 to 100 | 90 to 100 | – |
